This assay concerns mice. Description: Neuropharmacological Assay (SmartCube). As to conditions: for minimal effective dose: Mus musculus, read-out: POTENCY (minimal effective dose, MED); for AD: ADHD (SmartCube probability) / AG: analgesic (SmartCube probability) / AX: anxiolytic (SmartCube probability) / CE: cognitive enhancer (SmartCube probability) / DP: anti-depressant (SmartCube probability) / MS: mood stabilizer (SmartCube probability) / PS: anti-psychotic (SmartCube probability) / SD: sedative hypnotic (SmartCube probability) / UN: uncharacterized CNS activity (SmartCube probability): mice, i.p. 15 min before test, most efficacious dose(s) of 3 doses. It counts as in vivo. The method, boiled down: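 Compounds in NMP/PEG/propylene glycol given i.p. 15 min before automated video-based behavioral testing, at 3 doses; behavioral signature compared with a reference-compound database to give probability per drug class, reported at most efficacious dose. MED = dose (mpk) giving ≥50% total activity; doses typically 0.3–30 mpk.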

Where [1] appears, read: MED = dose having 50% or more total activity in SmartCube.

In the case of `CCNC[C@H]1OCCc2cccc(F)c21` [Example 86, (S)-N-((8-fluoroisochroman-1-yl)methyl)ethanamine], the “AD: ADHD (SmartCube probability)” value is reported as “++ (5%≤ ++ <25%)”, the “AG: analgesic (SmartCube probability)” value is on record as “+ (LOQ≤ + <5%)”, the “AX: anxiolytic (SmartCube probability)” value is recorded as “++ (5%≤ ++ <25%)” and the “CE: cognitive enhancer (SmartCube probability)” value (“CE: cognitive enhancer” below) was “++ (5%≤ ++ <25%)”. In addition, the “DP: anti-depressant (SmartCube probability)” value (“DP: anti-depressant” for short) is recorded as “++ (5%≤ ++ <25%)”, the “MS: mood stabilizer (SmartCube probability)” value (shortened to “MS: mood stabilizer”) is “+ (LOQ≤ + <5%)”, the “PS: anti-psychotic (SmartCube probability)” value (“PS: anti-psychotic” below) is reported as “++ (5%≤ ++ <25%)” and the “SD: sedative hypnotic (SmartCube probability)” value (“SD: sedative hypnotic” for short) was “+++ (25%≤ +++ <50%)”. The “UN: uncharacterized CNS activity (SmartCube probability)” value (“UN: uncharacterized CNS activity” for short) is on record as “+ (LOQ≤ + <5%)”. In addition, the minimal effective dose under setting [1] lay in the range of 10 to 30 mg/kg.
Regarding `NC[C@H]1OCCc2cccc(Cl)c21` [Example 70, (S)-(8-chloroisochroman-1-yl)methanamine], the “AD: ADHD (SmartCube probability)” value is given as “+ (LOQ≤ + <5%)”, the “AG: analgesic (SmartCube probability)” value is “++ (5%≤ ++ <25%)”, the “AX: anxiolytic (SmartCube probability)” value was “++ (5%≤ ++ <25%)” and the “CE: cognitive enhancer” value is “++ (5%≤ ++ <25%)”. Besides, the “DP: anti-depressant” value was “++ (5%≤ ++ <25%)”, the “MS: mood stabilizer” value is recorded as “+ (LOQ≤ + <5%)”, the “PS: anti-psychotic” value is listed as “+++ (25%≤ +++ <50%)” and the “SD: sedative hypnotic” value is reported as “++ (5%≤ ++ <25%)”. Also, the “UN: uncharacterized CNS activity” value is “+++ (25%≤ +++ <50%)”. Further, the minimal effective dose under setting [1] was in the range of 3 to 10 mg/kg.
In the case of `CNC[C@@H]1OCCc2ccc(Cl)cc21` [Example 65, (R)-1-(7-chloroisochroman-1-yl)-N-methylmethanamine], the “AD: ADHD (SmartCube probability)” value is on record as “+ (LOQ≤ + <5%)”, the “AG: analgesic (SmartCube probability)” value is reported as “++ (5%≤ ++ <25%)”, the “AX: anxiolytic (SmartCube probability)” value was “++ (5%≤ ++ <25%)” and the “CE: cognitive enhancer” value is listed as “+ (LOQ≤ + <5%)”. Further, the “DP: anti-depressant” value was “++ (5%≤ ++ <25%)”, the “MS: mood stabilizer” value is on record as “+ (LOQ≤ + <5%)”, the “PS: anti-psychotic” value is reported as “++ (5%≤ ++ <25%)” and the “SD: sedative hypnotic” value is “++ (5%≤ ++ <25%)”. The “UN: uncharacterized CNS activity” value is reported as “++++ (50%≤ ++++)”. Besides, the “POTENCY (minimal effective dose, MED)” value under setting [1] is “A-B”.
For the molecule `CNC[C@H]1OCCc2c(O)cc3c(c21)OCO3` (single isomer, unassigned) [Example 104], the “AD: ADHD (SmartCube probability)” value was “+ (LOQ≤ + <5%)”, the “AG: analgesic (SmartCube probability)” value was “+ (LOQ≤ + <5%)”, the “AX: anxiolytic (SmartCube probability)” value was “+++ (25%≤ +++ <50%)” and the “CE: cognitive enhancer” value was “++ (5%≤ ++ <25%)”. The “DP: anti-depressant” value is “++++ (50%≤ ++++)”, the “MS: mood stabilizer” value is recorded as “+ (LOQ≤ + <5%)”, the “PS: anti-psychotic” value was “+ (LOQ≤ + <5%)” and the “SD: sedative hypnotic” value is “++ (5%≤ ++ <25%)”. In addition, the “UN: uncharacterized CNS activity” value was “++ (5%≤ ++ <25%)”. Moreover, the minimal effective dose under setting [1] is less than 3 mg/kg.
For `CNC[C@@H]1OCCc2c(F)ccc(F)c21` [Example 31, (R)-1-(5,8-difluoroisochroman-1-yl)-N-methylmethanamine], the “AD: ADHD (SmartCube probability)” value is given as “+ (LOQ≤ + <5%)”, the “AG: analgesic (SmartCube probability)” value is on record as “++ (5%≤ ++ <25%)”, the “AX: anxiolytic (SmartCube probability)” value is reported as “++ (5%≤ ++ <25%)” and the “CE: cognitive enhancer” value is reported as “++ (5%≤ ++ <25%)”. The “DP: anti-depressant” value is reported as “++++ (50%≤ ++++)”, the “MS: mood stabilizer” value is “+ (LOQ≤ + <5%)”, the “PS: anti-psychotic” value is reported as “+ (LOQ≤ + <5%)” and the “SD: sedative hypnotic” value is on record as “+ (LOQ≤ + <5%)”. Besides, the “UN: uncharacterized CNS activity” value is given as “+ (LOQ≤ + <5%)”. Moreover, under setting [1], the minimal effective dose is less than 3 mg/kg.
`CNC[C@H]1OCCCc2cccc(F)c21` [Example 60, (S)-1-(9-fluoro-1,3,4,5-tetrahydrobenzo[c]oxepin-1-yl)-N-methylmethanamine]: the “AD: ADHD (SmartCube probability)” value is “+ (LOQ≤ + <5%)”, the “AG: analgesic (SmartCube probability)” value is given as “+ (LOQ≤ + <5%)”, the “AX: anxiolytic (SmartCube probability)” value is “++ (5%≤ ++ <25%)” and the “CE: cognitive enhancer” value is “+ (LOQ≤ + <5%)”. Also, the “DP: anti-depressant” value is recorded as “++ (5%≤ ++ <25%)”, the “MS: mood stabilizer” value is “+ (LOQ≤ + <5%)”, the “PS: anti-psychotic” value is “++ (5%≤ ++ <25%)” and the “SD: sedative hypnotic” value is given as “++++ (50%≤ ++++)”. Further, the “UN: uncharacterized CNS activity” value is given as “+++ (25%≤ +++ <50%)”. In addition, the minimal effective dose under setting [1] was 3 to 10 mg/kg.
Regarding `NC[C@@H]1OCCc2c(F)cccc21` [Example 29, (R)-(5-fluoroisochroman-1-yl)methanamine], the “AD: ADHD (SmartCube probability)” value is on record as “+ (LOQ≤ + <5%)”, the “AG: analgesic (SmartCube probability)” value was “++ (5%≤ ++ <25%)”, the “AX: anxiolytic (SmartCube probability)” value was “++ (5%≤ ++ <25%)” and the “CE: cognitive enhancer” value is “++ (5%≤ ++ <25%)”. For the same molecule, the “DP: anti-depressant” value is listed as “++++ (50%≤ ++++)”, the “MS: mood stabilizer” value is reported as “+ (LOQ≤ + <5%)”, the “PS: anti-psychotic” value was “+ (LOQ≤ + <5%)” and the “SD: sedative hypnotic” value is “+ (LOQ≤ + <5%)”. Besides, the “UN: uncharacterized CNS activity” value is given as “++ (5%≤ ++ <25%)”. Moreover, the minimal effective dose under setting [1] lay within 3 to 10 mg/kg.
As for `CNC[C@H]1OCCc2cccc(C)c21` [Example 40, (S)-N-methyl-1-(8-methylisochroman-1-yl)methanamine], the “AD: ADHD (SmartCube probability)” value is given as “+ (LOQ≤ + <5%)”, the “AG: analgesic (SmartCube probability)” value is reported as “+ (LOQ≤ + <5%)”, the “AX: anxiolytic (SmartCube probability)” value was “+++ (25%≤ +++ <50%)” and the “CE: cognitive enhancer” value is on record as “+ (LOQ≤ + <5%)”. The “DP: anti-depressant” value was “++ (5%≤ ++ <25%)”, the “MS: mood stabilizer” value is recorded as “+ (LOQ≤ + <5%)”, the “PS: anti-psychotic” value is recorded as “++ (5%≤ ++ <25%)” and the “SD: sedative hypnotic” value is given as “++ (5%≤ ++ <25%)”. Also, the “UN: uncharacterized CNS activity” value is “+++ (25%≤ +++ <50%)”. For the same molecule, the minimal effective dose under setting [1] is less than 3 mg/kg.
Regarding `Cc1cccc2c1[C@@H](CN)OCC2` [Example 74, (S)-(8-methylisochroman-1-yl)methanamine], the “AD: ADHD (SmartCube probability)” value is on record as “+ (LOQ≤ + <5%)”, the “AG: analgesic (SmartCube probability)” value is reported as “+ (LOQ≤ + <5%)”, the “AX: anxiolytic (SmartCube probability)” value is on record as “++ (5%≤ ++ <25%)” and the “CE: cognitive enhancer” value was “+ (LOQ≤ + <5%)”. The “DP: anti-depressant” value is “+ (LOQ≤ + <5%)”, the “MS: mood stabilizer” value was “+ (LOQ≤ + <5%)”, the “PS: anti-psychotic” value is “+ (LOQ≤ + <5%)” and the “SD: sedative hypnotic” value is “++ (5%≤ ++ <25%)”. Also, the “UN: uncharacterized CNS activity” value is reported as “+++ (25%≤ +++ <50%)”. Also, under setting [1], the minimal effective dose lay in the range of 10 to 30 mg/kg.
Regarding `CNC[C@@H]1OCC(C)(C)c2ccccc21` [Example 24, (R)-1-(4,4-dimethylisochroman-1-yl)-N-methylmethanamine], the “AD: ADHD (SmartCube probability)” value is recorded as “+ (LOQ≤ + <5%)”, the “AG: analgesic (SmartCube probability)” value was “++ (5%≤ ++ <25%)”, the “AX: anxiolytic (SmartCube probability)” value is given as “++ (5%≤ ++ <25%)” and the “CE: cognitive enhancer” value was “++ (5%≤ ++ <25%)”. Further, the “DP: anti-depressant” value is “++ (5%≤ ++ <25%)”, the “MS: mood stabilizer” value is given as “+ (LOQ≤ + <5%)”, the “PS: anti-psychotic” value was “+++ (25%≤ +++ <50%)” and the “SD: sedative hypnotic” value is on record as “++ (5%≤ ++ <25%)”. For the same molecule, the “UN: uncharacterized CNS activity” value is given as “+++ (25%≤ +++ <50%)”. Besides, the minimal effective dose under setting [1] is less than 3 mg/kg.
On to `CN(C)C[C@H]1OCCc2cccc(F)c21` [Example 84, (S)-1-(8-fluoroisochroman-1-yl)-N,N-dimethylmethanamine], for which the “AD: ADHD (SmartCube probability)” value was “+ (LOQ≤ + <5%)”, the “AG: analgesic (SmartCube probability)” value is listed as “++ (5%≤ ++ <25%)”, the “AX: anxiolytic (SmartCube probability)” value was “++ (5%≤ ++ <25%)” and the “CE: cognitive enhancer” value is given as “++ (5%≤ ++ <25%)”. The “DP: anti-depressant” value is on record as “++ (5%≤ ++ <25%)”, the “MS: mood stabilizer” value is “+ (LOQ≤ + <5%)”, the “PS: anti-psychotic” value was “++ (5%≤ ++ <25%)” and the “SD: sedative hypnotic” value is “++ (5%≤ ++ <25%)”. For the same molecule, the “UN: uncharacterized CNS activity” value was “++++ (50%≤ ++++)”. Moreover, the minimal effective dose under setting [1] is less than 3 mg/kg.
Consider `CNC[C@H]1OC[C@@H](O)c2cccc(F)c21` [Example 98, (1S,4S)-8-fluoro-1-((methylamino)methyl)isochroman-4-ol], for which the “AD: ADHD (SmartCube probability)” value is on record as “+ (LOQ≤ + <5%)”, the “AG: analgesic (SmartCube probability)” value was “+ (LOQ≤ + <5%)”, the “AX: anxiolytic (SmartCube probability)” value is recorded as “+ (LOQ≤ + <5%)” and the “CE: cognitive enhancer” value was “+ (LOQ≤ + <5%)”. Moreover, the “DP: anti-depressant” value is listed as “+ (LOQ≤ + <5%)”, the “MS: mood stabilizer” value is “+ (LOQ≤ + <5%)”, the “PS: anti-psychotic” value was “+ (LOQ≤ + <5%)” and the “SD: sedative hypnotic” value is reported as “+ (LOQ≤ + <5%)”. Moreover, the “UN: uncharacterized CNS activity” value is “+ (LOQ≤ + <5%)”. Besides, the minimal effective dose under setting [1] is more than 30 mg/kg.

Broadly, the minimal effective dose is the smallest amount tested that counted as effective.

The record behind these values is patent publication US10196403B2, “Compounds and compositions and uses thereof” (Sunovion Pharmaceuticals Inc., priority 2016, dated 2019).
